Target: T1, human VDR (Homo sapiens, UniProt P11473)
T1 sequence (P11473 1-427): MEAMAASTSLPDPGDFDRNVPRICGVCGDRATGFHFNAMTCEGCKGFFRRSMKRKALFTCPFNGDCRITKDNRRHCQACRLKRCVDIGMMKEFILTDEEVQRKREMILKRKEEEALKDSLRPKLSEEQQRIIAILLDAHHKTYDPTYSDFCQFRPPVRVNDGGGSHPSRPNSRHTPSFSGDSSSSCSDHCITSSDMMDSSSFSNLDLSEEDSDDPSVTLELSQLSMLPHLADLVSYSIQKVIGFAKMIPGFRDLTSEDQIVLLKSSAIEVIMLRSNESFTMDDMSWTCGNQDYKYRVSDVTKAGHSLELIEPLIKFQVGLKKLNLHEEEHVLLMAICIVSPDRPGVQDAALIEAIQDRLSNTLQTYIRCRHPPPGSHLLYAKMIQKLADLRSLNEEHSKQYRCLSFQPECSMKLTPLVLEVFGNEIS
T1 sequence (P19793 1-462 partner): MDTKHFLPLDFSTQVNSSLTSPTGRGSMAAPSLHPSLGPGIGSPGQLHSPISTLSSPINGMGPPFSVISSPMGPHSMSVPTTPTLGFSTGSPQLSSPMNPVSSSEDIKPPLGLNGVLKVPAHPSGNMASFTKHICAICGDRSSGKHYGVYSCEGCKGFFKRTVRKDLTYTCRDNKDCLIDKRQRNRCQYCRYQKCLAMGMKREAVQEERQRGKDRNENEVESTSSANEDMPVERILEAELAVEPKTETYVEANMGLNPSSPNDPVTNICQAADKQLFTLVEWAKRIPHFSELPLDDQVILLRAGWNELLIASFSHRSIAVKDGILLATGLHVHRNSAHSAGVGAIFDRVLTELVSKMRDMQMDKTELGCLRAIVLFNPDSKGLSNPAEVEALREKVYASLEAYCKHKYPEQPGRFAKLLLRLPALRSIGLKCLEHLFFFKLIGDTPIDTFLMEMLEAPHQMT
Assay: Evaluation of VDR transcription activity in human osteoblasts (HOS cells), luciferase reporter
Settings: Activity (EC50, VDR transcription activity), HOS cells transfected with human VDR, human RXRα and DR3 luciferase reporter; 21 hours

With `C[C@H](CCN1CC(OC(F)F)C1)[C@H]1CC[C@H]2/C(=C/C=C3C[C@@H](O)C[C@H](O)C3)CCC[C@]12C` [Compound A025, (1R,3R)-5-(2-((1R,3aS,7aR,E)-1-((R)-4-(3-(difluoromethoxy)azetidin-1-yl)butan-2-yl)-7a-methyloctahydro-4H-inden-4-ylidene)ethylidene)cyclohexane-1,3-diol] as the compound, how does the EC50 read?
The EC50 was 100 to 1000 nM.

Which EC50 does the source give for `COC1(C(F)(F)F)CN(CC[C@@H](C)[C@H]2CC[C@H]3/C(=C/C=C4C[C@@H](O)C[C@H](O)C4)CCC[C@]23C)C1` [Compound A027, (1R,3R)-5-(2-((1R,3aS,7aR,E)-1-((R)-4-(3-methoxy-3-(trifluoromethyl)azetidin-1-yl)butan-2-yl)-7a-methyloctahydro-4H-inden-4-ylidene)ethylidene)cyclohexane-1,3-diol] here?
The EC50 was 1 to 10 nM.

How did the EC50 turn out when `C[C@H](CCN1CC(OC(F)(F)F)C1)[C@H]1CC[C@H]2/C(=C/C=C3C[C@@H](O)C[C@H](O)C3)CCC[C@]12C` [Compound A028, (1R,3R)-5-(2-((1R,3aS,7aR,E)-7a-methyl-1-((R)-4-(3-(trifluoromethoxy)azetidin-1-yl)butan-2-yl)octahydro-4H-inden-4-ylidene)ethylidene)cyclohexane-1,3-diol] was run?
Its EC50 is 100 to 1000 nM.

How did the EC50 turn out when `C=C1[C@H](O)CC(=C/C=C2\CCC[C@]3(C)[C@@H]([C@H](C)CCN4CC(OC(F)F)C4)CC[C@@H]23)C[C@H]1O` [Compound A030, (1R,3R)-5-(2-((1R,3aS,7aR,E)-1-((R)-4-(3-(difluoromethoxy)azetidin-1-yl)butan-2-yl)-7a-methyloctahydro-4H-inden-4-ylidene)ethylidene)-2-methylenecyclohexane-1,3-diol] was run?
The EC50 was 10 to 100 nM.

With `C=C1[C@H](O)CC(=C/C=C2\CCC[C@]3(C)[C@@H]([C@H](C)CN4CC[C@@H](C)C4)CC[C@@H]23)C[C@H]1O` [Compound B003, (1R,3R)-5-(2-((1R,3aS,7aR,E)-7a-methyl-1-((S)-1-((R)-3-methylpyrrolidin-1-yl)propan-2-yl)octahydro-4H-inden-4-ylidene)ethylidene)-2-methylenecyclohexane-1,3-diol] as the compound, how does the EC50 read?
Its EC50 is 1 to 10 nM.

With `C=C1[C@H](O)CC(=C/C=C2\CCC[C@]3(C)[C@@H]([C@H](C)CN4CC[C@H](CC)C4)CC[C@@H]23)C[C@H]1O` [Compound B005, (1R,3R)-5-(2-((1R,3aS,7aR,E)-1-((S)-1-((S)-3-ethylpyrrolidin-1-yl)propan-2-yl)-7a-methyloctahydro-4H-inden-4-ylidene)ethylidene)-2-methylenecyclohexane-1,3-diol] as the compound, how does the EC50 read?
The EC50 was 1 to 10 nM.

Which EC50 does the source give for `CC[C@@H]1CCN(C[C@@H](C)[C@H]2CC[C@H]3/C(=C/C=C4C[C@@H](O)C[C@H](O)C4)CCC[C@]23C)C1` [Compound B008, (1R,3R)-5-(2-((1R,3aS,7aR,E)-1-((S)-1-((R)-3-ethylpyrrolidin-1-yl)propan-2-yl)-7a-methyloctahydro-4H-inden-4-ylidene)ethylidene)cyclohexane-1,3-diol] here?
Its EC50 is 10 to 100 nM.

`C=C1/C(=C\C=C2/CCC[C@]3(C)[C@@H]([C@@H](C)CN4CCCC4)CC[C@@H]23)C[C@@H](O)C[C@@H]1O` [Compound B009, (1R,3S,Z)-5-(2-((1R,3aS,7aR,E)-7a-methyl-1-((R)-1-(pyrrolidin-1-yl)propan-2-yl)octahydro-4H-inden-4-ylidene)ethylidene)-4-methylenecyclohexane-1,3-diol] was tested. Which EC50 did it give?
The EC50 was 100 to 1000 nM.

Which EC50 does the source give for `C=C1/C(=C\C=C2/CCC[C@]3(C)[C@@H]([C@@H](C)CN4CC[C@H](C)C4)CC[C@@H]23)C[C@@H](O)C[C@@H]1O` [Compound B010, (1R,3S,Z)-5-(2-((1R,3aS,7aR,E)-7a-methyl-1-((R)-1-((S)-3-methylpyrrolidin-1-yl)propan-2-yl)octahydro-4H-inden-4-ylidene)ethylidene)-4-methylenecyclohexane-1,3-diol] here?
Its EC50 is 10 to 100 nM.

For `C=C1/C(=C\C=C2/CCC[C@]3(C)[C@@H]([C@@H](C)CN4CC[C@@H](C)C4)CC[C@@H]23)C[C@@H](O)C[C@@H]1O` [Compound B011, (1R,3S,Z)-5-(2-((1R,3aS,7aR,E)-7a-methyl-1-((R)-1-((R)-3-methylpyrrolidin-1-yl)propan-2-yl)octahydro-4H-inden-4-ylidene)ethylidene)-4-methylenecyclohexane-1,3-diol], which EC50 is on record?
Its EC50 is 10 to 100 nM.

For `C[C@H](CN1CC[C@H](F)C1)[C@H]1CC[C@H]2/C(=C/C=C3C[C@@H](O)C[C@H](O)C3)CCC[C@]12C` [Compound B012, (1R,3R)-5-(2-((1R,3aS,7aR,E)-1-((S)-1-((S)-3-fluoropyrrolidin-1-yl)propan-2-yl)-7a-methyloctahydro-4H-inden-4-ylidene)ethylidene)cyclohexane-1,3-diol], which EC50 is on record?
The EC50 was 100 to 1000 nM.

`C[C@H](CCN1CC[C@H](F)C1)[C@H]1CC[C@H]2/C(=C/C=C3C[C@@H](O)C[C@H](O)C3)CCC[C@]12C` [Compound B014, (1R,3R)-5-(2-((1R,3aS,7aR,E)-1-((R)-4-((S)-3-fluoropyrrolidin-1-yl)butan-2-yl)-7a-methyloctahydro-4H-inden-4-ylidene)ethylidene)cyclohexane-1,3-diol] was tested. Which EC50 did it give?
The EC50 was 10 to 100 nM.

Which EC50 does the source give for `C[C@H](CCN1CC[C@@H](F)C1)[C@H]1CC[C@H]2/C(=C/C=C3C[C@@H](O)C[C@H](O)C3)CCC[C@]12C` [Compound B015, (1R,3R)-5-(2-((1R,3aS,7aR,E)-1-((R)-4-((R)-3-fluoropyrrolidin-1-yl)butan-2-yl)-7a-methyloctahydro-4H-inden-4-ylidene)ethylidene)cyclohexane-1,3-diol] here?
The EC50 was 10 to 100 nM.

For `C[C@H](CCCN1CC[C@H](F)C1)[C@H]1CC[C@H]2/C(=C/C=C3C[C@@H](O)C[C@H](O)C3)CCC[C@]12C` [Compound B016, (1R,3R)-5-(2-((1R,3aS,7aR,E)-1-((R)-5-((S)-3-fluoropyrrolidin-1-yl)pentan-2-yl)-7a-methyloctahydro-4H-inden-4-ylidene)ethylidene)cyclohexane-1,3-diol], which EC50 is on record?
Its EC50 is 10 to 100 nM.

With `C[C@H](CCCN1CC[C@@H](F)C1)[C@H]1CC[C@H]2/C(=C/C=C3C[C@@H](O)C[C@H](O)C3)CCC[C@]12C` [Compound B017, (1R,3R)-5-(2-((1R,3aS,7aR,E)-1-((R)-5-((R)-3-fluoropyrrolidin-1-yl)pentan-2-yl)-7a-methyloctahydro-4H-inden-4-ylidene)ethylidene)cyclohexane-1,3-diol] as the compound, how does the EC50 read?
The EC50 was 10 to 100 nM.

How did the EC50 turn out when `C=C1/C(=C\C=C2/CCC[C@]3(C)[C@@H]([C@H](C)CN4CC[C@@H](C(F)F)C4)CC[C@@H]23)C[C@@H](O)[C@H](C)[C@@H]1O` [Compound B025, (1R,2S,3 S,Z)-5-(2-((1R,3aS,7aR,E)-1-((S)-1-((R)-3-(difluoromethyl)pyrrolidin-1-yl)propan-2-yl)-7a-methyloctahydro-4H-inden-4-ylidene)ethylidene)-2-methyl-4-methylenecyclohexane-1,3-diol] was run?
The EC50 was 10 to 100 nM.

For `C=C1/C(=C\C=C2/CCC[C@]3(C)[C@@H]([C@H](C)CN4CC[C@H](C(C)(F)F)C4)CC[C@@H]23)C[C@@H](O)C[C@@H]1O` [Compound B028, (1R,3S,Z)-5-(2-((1R,3aS,7aR,E)-1-((S)-1-((S)-3-(1,1-difluoroethyl)pyrrolidin-1-yl)propan-2-yl)-7a-methyloctahydro-4H-inden-4-ylidene)ethylidene)-4-methylenecyclohexane-1,3-diol], which EC50 is on record?
Its EC50 is less than 1 nM.

How did the EC50 turn out when `C[C@H](CN1CC[C@H](C(C)(F)F)C1)[C@H]1CC[C@H]2/C(=C/C=C3C[C@@H](O)C[C@H](O)C3)CCC[C@]12C` [Compound B030, (1R,3R)-5-(2-((1R,3aS,7aR,E)-1-((S)-1-((S)-3-(1,1-difluoroethyl)pyrrolidin-1-yl)propan-2-yl)-7a-methyloctahydro-4H-inden-4-ylidene)ethylidene)cyclohexane-1,3-diol] was run?
Its EC50 is 10 to 100 nM.

`C=C1[C@H](O)CC(=C/C=C2\CCC[C@]3(C)[C@@H]([C@H](C)CN4CC[C@H](C(C)(F)F)C4)CC[C@@H]23)C[C@H]1O` [Compound B031, (1R,3R)-5-(2-((1R,3aS,7aR,E)-1-((S)-1-((S)-3-(1,1-difluoroethyl)pyrrolidin-1-yl)propan-2-yl)-7a-methyloctahydro-4H-inden-4-ylidene)ethylidene)-2methylenecyclohexane-1,3-diol] was tested. Which EC50 did it give?
Its EC50 is 1 to 10 nM.

With `C=C1/C(=C\C=C2/CCC[C@]3(C)[C@@H]([C@H](C)CN4CC[C@@H](C(C)(F)F)C4)CC[C@@H]23)C[C@@H](O)C[C@@H]1O` [Compound B032, (1R,3S,Z)-5-(2-((1R,3aS,7aR,E)-1-((S)-1-((R)-3-(1,1-difluoroethyl)pyrrolidin-1-yl)propan-2-yl)-7a-methyloctahydro-4H-inden-4-ylidene)ethylidene)-4-methylenecyclohexane-1,3-diol] as the compound, how does the EC50 read?
The EC50 was 1 to 10 nM.
